# Assay results reported in PubChem BioAssay AID1996.
# Details: buffer; pH 7.4; 200.0 µM
row,Compound,solubility kinetic
1,CC(=O)C1C(c2ccccc2)c2c(noc2C)CC1(C)O (stereo not given),> 42.8 µg/mL
2,Cc1ccc(NC(=O)C2CCN(C(=O)c3ccco3)CC2)cc1,> 46.9 µg/mL
3,CCc1nc2ccc(C(=O)N(C)CC(=O)Nc3ccccc3C(F)(F)F)cc2nc1CC,27.6 µg/mL
4,Cc1cccc(NC(=S)NCc2ccccc2)c1C,35.1 µg/mL
5,Cc1ccc(C)c(NC(=S)NCCCN2CCOCC2)c1,> 46.1 µg/mL
6,Cc1ccc2c(c1)c(=O)c1c3n2CCN(CC#N)C3CC1 (stereo not given),37.7 µg/mL
7,COc1ccc(C(=O)NC(=S)N2CCN(c3ccccc3O)CC2)cc1,6.1 µg/mL
8,CCOC(=O)c1c(C)[nH]c(C(=O)NCc2ccccn2)c1C,15.5 µg/mL
9,Cc1cccc(C(=O)N2CCCC(c3nc(-c4ccc(C)o4)no3)C2)c1 (stereo not given),47.7 µg/mL
10,CS(=O)(=O)c1ccc(C(=O)OCC(=O)Nc2cccnc2Cl)cc1[N+](=O)[O-],> 62.1 µg/mL
11,Nc1c(NC=O)c(=O)n(Cc2ccccc2)c(=O)n1Cc1ccccc1,52.1 µg/mL
12,O=C(COC(=O)c1ccco1)Nc1cc(S(=O)(=O)N2CCCCC2)ccc1Cl,6.7 µg/mL
13,CCc1cccc(NS(=O)(=O)c2ccc3c(c2)n(C)c(=O)n3C)c1,3.4 µg/mL
14,CC(C)c1cc(NCc2ccccn2)n2c(nc3ccccc32)c1C#N,< 0.1 µg/mL
15,CN(CC(=O)Nc1cccc(C(F)(F)F)c1)C1=NS(=O)(=O)c2ccccc21,3.7 µg/mL
16,COc1cccc2cc(C(=O)NCCN3CCOCC3)oc12,> 45.7 µg/mL
17,CC(=O)C1=C(O)C(=O)N(c2ccc(O)cc2)C1c1ccc(F)cc1 (stereo not given),> 49.1 µg/mL
18,CC(C)(C)C(=O)CN1C(=O)NC2(CCCc3ccccc32)C1=O (stereo not given),> 47.2 µg/mL
19,CCn1c(=O)c2sccc2n(Cc2ccccc2)c1=O,8.9 µg/mL
20,Cc1ccccc1OCC(=O)NCCCNC(=O)c1ccncc1,39.8 µg/mL

row,Compound,solubility kinetic
1,CCCCC(=O)NC(c1ccccc1)c1ccc2cccnc2c1O (stereo not given),< 0.4 µg/mL
2,CC(=O)c1cccc(OCC(=O)NC2CCCCCC2)c1,> 43.4 µg/mL
3,CC1CCN(CCC(=O)N/N=C/c2ccc([N+](=O)[O-])cc2)CC1,> 47.8 µg/mL
4,Cc1cccc(CSc2nnc([C@@H]3CCCN3)o2)c1.Cl,> 46.8 µg/mL
5,COc1cc(CN2CCC(CO)(CCOc3ccccc3)CC2)cc(OC)c1,52.2 µg/mL
6,CC(=O)c1cccc(OCC(=O)OCC(=O)Nc2cc(S(=O)(=O)N3CCCCC3)ccc2C)c1,61.5 µg/mL
7,COc1ccc(N2C(=O)NC3CC2(C)Oc2ccccc23)cc1 (stereo not given),44.4 µg/mL
8,CN(Cc1ccccc1)C(=O)COC(=O)COc1ccc(C#N)cc1,> 50.8 µg/mL
9,O=C(Nc1nccs1)c1ccc(COc2ccccc2Cl)o1,0.9 µg/mL
10,Cc1ccc(N(Cc2cc(=O)[nH]c3ccccc23)C(=O)CCl)c(C)c1,14.1 µg/mL
11,N#Cc1ccc(C(=O)CN2CCN(c3ccccc3)CC2)cc1,34 µg/mL
12,CNC(=S)Nc1cc(C)ccc1OC(F)F,> 36.9 µg/mL
13,CN(C)c1cccc(NC(=O)c2cccc3ccccc23)c1,6.1 µg/mL
14,CCc1ccc(N2CC(C(=O)NCCC3=CCCCC3)CC2=O)cc1 (stereo not given),6.8 µg/mL
15,CCc1cccc(CC)c1-n1c(SCC(=O)N2CCCc3ccccc32)nc(O)cc1=O,> 67.4 µg/mL
16,CCCCn1c(O)c(C=NCc2ccc3c(c2)OCO3)c(=O)[nH]c1=O,6.8 µg/mL
17,Clc1cccc(Nc2nc(-c3ccncc3)nc3ccccc23)c1,< 0.2 µg/mL
18,CC(=O)Nc1ccc(NC(=O)C2(C)CC2(Cl)Cl)cc1 (stereo not given),> 45.2 µg/mL
19,O=C(O)CN1C(=O)C(=O)N(Cc2ccc(Cl)c(Cl)c2)C1=O,46.1 µg/mL
20,CCc1ccc(Nc2ncnc3nc[nH]c23)cc1,> 35.9 µg/mL

row,Compound,solubility kinetic
1,CCC(C)[C@H](NC(=O)Nc1ccc(C)cc1C)C(=O)O (stereo not given in full),31.8 µg/mL
2,CCOC(=O)C(=CNc1ccc(Cl)cn1)C(=O)OCC,1.2 µg/mL
3,Cc1ccccc1NC(=O)Cc1nc(COC(=O)c2ccc(NC(N)=O)cc2)cs1,17.6 µg/mL
4,COc1ccc2cc(Br)ccc2c1CC(=O)N(C)C,21.1 µg/mL
5,COC(=O)Cn1cc(C(=O)c2ccccc2F)c2ccccc21,32.4 µg/mL
6,Cc1cc(C(=O)OCC(=O)NCc2ccccc2)c2ccccc2n1,13.9 µg/mL
7,CN(C)CCNS(=O)(=O)c1ccc2c3c(cccc13)C(=O)N2,> 47.9 µg/mL
8,COc1cc2c(cc1OC)CN(C(=O)c1ccc([N+](=O)[O-])o1)CC2,> 49.8 µg/mL
9,CC(CN1CCN(C)CC1)OC(=O)c1cccc(F)c1.Cl (stereo not given),> 47.5 µg/mL
10,CSc1nsc(SC)c1C(=O)O,> 33.2 µg/mL
11,COc1ccccc1OCc1ccc(C(=O)N2CCCCC2)o1,> 47.3 µg/mL
12,CCOCCCNC(=O)C1CC(=O)N(CCc2ccc(C)cc2)C1 (stereo not given),> 49.9 µg/mL
13,CC(OC(=O)c1ccc2c(c1)NC(=O)CS2)C(=O)c1ccc(F)cc1 (stereo not given),18.1 µg/mL
14,Cc1sc(NC(=O)COc2ccccc2)c(C#N)c1C,0.5 µg/mL
15,Cc1cccc(C(=O)N/C(=C\c2ccco2)C(=O)N2CCCCCC2)c1,50.3 µg/mL
16,O=C(CNC(=O)c1ccc(Cl)cc1Cl)OC1CCCCC1=O (stereo not given),39.4 µg/mL
17,CCc1ccc(N2C(=O)C3C4C=CC(CC4)C3C2=O)cc1 (stereo not given),14.3 µg/mL
18,O=C(COC(=O)c1ccccc1Nc1ccccc1F)c1ccccc1,< 0.7 µg/mL
19,COc1cc(Br)c(Br)c(Br)c1N,0.9 µg/mL
20,Cc1cccc(C(=O)Oc2ccccc2C(=O)N2CCOCC2)c1,> 48.8 µg/mL
